Patent US20260008784A1 (VASTHERA CO., LTD., priority 2022, published 2026)

Columns and labels:
[1] = tested on: Tyr 857 phosphorylation of PDGF receptor-β (PDGFRβ) in HASMC; experiment: Immunoblot of PDGF-mediated signaling in PrxII knock-down HASMC; format: cell-based, human; details: for Effect on phosphorylation of Tyr 857 on PDGFR: HASMC depleted of PrxII expression, FIG. 2
Procedure, shortened: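 HASMC and PASMC with PrxII knocked down by siRNA were treated with test compounds and PDGF-stimulated. Lysates in Hepes pH 7.0/Triton X-100 buffer with phosphatase and protease inhibitors were immunoblotted with anti-phospho-Tyr 857 PDGFRβ antibody. Membranes were stripped and reprobed.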

[2] = tested on: human aortic endothelial cell (HAEC); experiment: VEGF-induced proliferation assay, HAEC (PrxII siRNA); format: cell-based; details: for Degree of HAEC proliferation: VEGF-A 25 ng/mL, percent of untreated control; for EC50: Homo sapiens, Endothelial cell, effective concentration increasing cell proliferation by 50%, VEGF-stimulated
[3] = tested on: human pulmonary artery endothelial cell (PAEC); experiment: VEGF-induced proliferation assay, PAEC (PrxII siRNA); format: cell-based; details: for Degree of PAEC proliferation: VEGF-A 25 ng/mL, percent of untreated control; for EC50: Homo sapiens, Endothelial cell, effective concentration increasing cell proliferation by 50%, VEGF-stimulated
Protocol: HAECs and PAECs were transfected with a PrxII-specific siRNA using RNAi MAX transfection reagent according to manufacturer's protocol. After 24 hours, transfected cells (3,000 cells/well) were seeded in a 96-well culture plate. At 12 h after seeding, cells were serum-starved for additional 18 h in EBM basal medium containing 0.5% FBS. Test compounds were serially diluted with the same basal medium containing 0.5% FBS, added to the cells ([…]), and incubated for 2 h. After treatment, cells were placed in fresh EBM medium containing 0.5% FBS and VEGF-A (25 ng/mL) for growth factor stimulation and further cultured for 24 h.
The degree of cell proliferation was measured using the Cell Titer-GLO kit ([…]). Data are the percent of luminescence intensity averaged from three replicate wells versus that of untreated control group.
In human aortic endothelial cell (HAEC) and human pulmonary artery endothelial cell (PAEC) in which PrxII was knocked out by transfecting the PrxII siRNA, the ability of test compounds to augment the VEGF-induced proliferation of vascular endothelial cells was evaluated. In Table 7, the degree of proliferation in the compound-treated groups is expressed as percent of the degree of proliferation in untreated control group. The effective concentrations of test compounds increasing cell proliferation by 50% (EC50) is also listed.

[4] = tested on: SuHx rat model of pulmonary arterial hypertension; experiment: Sugen/hypoxia (SuHx) rat model of pulmonary arterial hypertension; format: in vivo; details: P.O., once daily, 0.1 mg/kg, 5 weeks; for RV hypertrophy (Fulton's index) / Right ventricular systolic pressure (RVSP): compared to vehicle control group, FIG. 7
Protocol: The rat study protocol was approved by the Institutional Animal Care and Use Committee of the Ewha Womans University, Republic of Korea, and conforms to the ARRIVE guidelines. Six-week-old rats were acclimatized for one week in the laboratory. Then, Sugen 5416 (Sigma Aldrich) was subcutaneously injected at a dose of 20 mg/kg. The administered subjects were maintained in a normobaric hypoxic (10% O2) chamber (A chamber, Biosphenix) for 3 weeks. Rats were transferred to normoxia and orally administered with either control vehicle or test compounds for additional 5 weeks (P.O., once daily, 0.1 mg per kg weight).
Right ventricular systolic pressure (RVSP) was measured by […] using a curved catheter equipped with PowerLab2/26 device (AD Instruments, UK). Rats were anesthetized with 2% isoflurane inhalation. A catheter was inserted through the right jugular vein, the pressure was measured for 10 seconds with stabilized pattern. After […], rats were perfused with saline, and the heart was carefully removed. The removed heart was dissected into the right ventricle (RV), the rest of the septum (S; septum), and the left ventricle (LV). Each piece of heart was weighed using a microbalance. The RV/(LV+S) value was calculated and represented as a right ventricular hypertrophy index (Fulton's index).
Rats were anesthetized with 2% isoflurane inhalation and subjected to transcardiac perfusion-fixation with heparinized saline solution containing […]. Then, left lung lobes were incised and fixed in 10% NBF for 3 days. The fixed tissues were paraffin-embedded and sectioned using a rotary microtome (Leica HistoCore MULTICUT). Two serial tissue sections (4 μm thick) were placed a slide glass and stained with hematoxylin and eosin (HE). For analysis, ˜100 pulmonary arteries (diameter 20-100 μm) per tissue section were chosen for measurement. The luminal, internal elastic laminal, and external elastic laminal areas were quantified using NIH ImageJ v1.62. The intimal and medial areas were determined by subtraction of the luminal area from the internal elastic area and by subtracting the internal elastic area from the external elastic area. The values were averaged and used for calculating pulmonary arterial vessel thickness.
Paraffin sections were blocked with 5% normal donkey serum (Vector Laboratories) in PBST (PBS solution of 0.3% Triton X-100) for 1 h at room temperature. Thereafter, lung tissue sections were incubated with […] for Alexa Fluor 568-conjugated smooth muscle actin (α-SMA; 1:300 dilution) and Alexa Fluor 488-conjugated von Willebrand Factor (vWF; 1:200 dilution) at 4° C. for 12 h. Subsequently, nuclei were counterstained with DAPI. Fluorescence images were recorded in random regions of at least 10 pulmonary artery vessels (diameter 20-100 um) per tissue section at a screen magnification of 60× using an LSM 880 confocal microscope equipped with argon and helium-neon lasers.
The therapeutic effect of new compounds on pulmonary arterial hypertension was evaluated in a preclinical SuHx rat model. For establishing PAH model, rats were administered with Sugen (VEGFR2 inhibitor) and placed in a normobaric hypoxic condition (10% O2) for 3 weeks. Rats were moved to normoxic condition and orally administered with control vehicle or compound 1 or 8 (P.O., once daily, 0.1 mg/kg) for 5 weeks. Thereafter, right ventricular systolic pressure (RVSP) and right ventricular hypertrophy (Fulton's index) were measured at the end of treatment.

Protocol for in vitro: Cytotoxicity tests were performed against vascular endothelial cells, vascular smooth muscle cells and hepatocytes. After treatment with ascending concentrations of each compound, the concentration of test compound corresponding to 50% cell viability (CC50) was measured.

Row | Compound | Effect on phosphorylation of Tyr 857 on PDGFR [1] | Degree of HAEC proliferation ([2]; 2.5 nM) [%] | Degree of HAEC proliferation ([2]; 5 nM) [%] | Degree of HAEC proliferation ([2]; 10 nM) [%] | Degree of HAEC proliferation ([2]; 25 nM) [%] | Degree of HAEC proliferation ([2]; 50 nM) [%] | Degree of HAEC proliferation ([2]; 100 nM) [%] | EC50 [2] [nM] | Degree of PAEC proliferation ([3]; 2.5 nM) [%] | Degree of PAEC proliferation ([3]; 5 nM) [%] | Degree of PAEC proliferation ([3]; 10 nM) [%] | Degree of PAEC proliferation ([3]; 25 nM) [%] | Degree of PAEC proliferation ([3]; 50 nM) [%] | Degree of PAEC proliferation ([3]; 100 nM) [%] | EC50 [3] [nM] | RV hypertrophy (Fulton's index) [4] | Right ventricular systolic pressure (RVSP) [4] | CC50 (in vitro) [nM] | also measured
1 | CN1C(=O)C2(C)SSCC1C(=O)N2C (stereo not shown) [Compound 1, 1,6,8-trimethyl-2,3-dithia-6,8-diazabicyclo[3.2.2]nonane-7,9-dione] | strongly abolish the phosphorylation | 113.8 | 143.7 | 162.9 | 187.8 | 164.7 | 170.2 | 4.93 | 104.7 | 120.0 | 143.8 | 164.3 | 158.8 | 145.5 | 9.54 | significantly reduces | significantly reduces | 230000 | Concentrations at which phosphorylation of Tyr 857 on PDGFRβ is significantly reduced ([1]; HASMCs, PrxII knock-down, FIG. 1): above 2.5 nM; Pulmonary arterial vessel occlusion (histology) ([4]; FIG. 8): widens the pulmonary arterial vessels; Endothelial layer (vWF-labeled ECs) in pulmonary arterial vessels ([4]; immunostaining, FIG. 9): induces the recovery of endothelial layer; Medial thickness (SMA-labeled SMCs) in pulmonary arterial vessels ([4]; immunostaining, FIG. 9): reduction of medial thickness
2 | CN1C(=O)C2CSSC1(C)C(=O)N2Cc1ccc2ccccc2n1 (stereo not shown) [Compound 5, 1,8-dimethyl-6-(quinolin-2-ylmethyl)-2,3-dithia-6,8-diazabicyclo[3.2.2]nonane-7,9-dione] | strongly abolish the phosphorylation | 112.2 | 129.7 | 165.6 | 191.6 | 172.7 | 180.1 | 5.31 | 106.1 | 129.7 | 152.3 | 165.6 | 167.7 | 147.4 | 5.03 |  |  | > 500000 | 
3 | O=C1C2CSSC3(COCCN13)C(=O)N2Cc1ccccc1 (stereo not shown) [Compound 8, 12-benzyltetrahydro-5H,10H-4,10a-(epiminomethano)[1,4]oxazino[3,4-c][1,2,4]dithia zepine-5,11-dione] |  | 107.3 | 147.3 | 186.3 | 204.8 | 157.0 | 161.6 | 5.04 | 108.5 | 124.9 | 143.4 | 164.8 | 158.1 | 144.0 | 5.12 | significantly reduces | significantly reduces | 312000 | 
4 | CCN1C(=O)C2(C)SSCC1C(=O)N2CC (stereo not shown) [Compound 20, 6,8-diethyl-1-methyl-2,3-dithia-6,8-diazabicyclo[3.2.2]nonane-7,9-dione] | strongly abolish the phosphorylation | 116.4 | 120.3 | 136.3 | 155.9 | 169.5 | 187.6 | 10.2 | 109.2 | 124.3 | 133.5 | 166.5 | 180.9 | 180.4 | 10.3 |  |  |  | 
